This is an account of results in ChEMBL document CHEMBL1128011, “Discovery of nonpeptide potent conformationally restricted angiotensin II receptor antagonists” (Bioorg Med Chem Lett, 1994).

The target in experiment [1] is T1, Type-1 angiotensin II receptor B (Rattus norvegicus, UniProt P29089).
T1 sequence (P29089 whole entry): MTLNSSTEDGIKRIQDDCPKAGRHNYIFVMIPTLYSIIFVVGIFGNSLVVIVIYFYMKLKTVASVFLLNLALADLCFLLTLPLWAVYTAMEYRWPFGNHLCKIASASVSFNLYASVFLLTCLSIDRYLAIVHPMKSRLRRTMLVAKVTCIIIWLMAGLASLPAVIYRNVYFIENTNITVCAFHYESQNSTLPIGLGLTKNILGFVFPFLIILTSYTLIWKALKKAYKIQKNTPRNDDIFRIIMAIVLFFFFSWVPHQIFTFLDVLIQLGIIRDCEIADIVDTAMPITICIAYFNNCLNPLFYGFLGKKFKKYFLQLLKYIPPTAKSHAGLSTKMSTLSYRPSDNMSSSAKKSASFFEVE
The experiment can be described thus: Inhibition of [125-I]-labeled angiotensin II binding to AT1 receptor in rat uterine membranes. In kind it is cell membranes, Membrane.

The target of experiment [2] is T1, Type-1 angiotensin II receptor B. The experiment can be described thus: Displacement of [125-I]-labeled angiotensin II from Angiotensin II receptor, type 1 of rat uterine membranes. Type of experiment: cell membranes, Membrane.
The species entered for experiment [3] is Oryctolagus cuniculus. The experiment can be described thus: Compound was tested in vitro for its ability to antagonize the AII-mediated contraction of rabbit aortic rings. In kind it is functional, Aorta.

One may read the IC50 as the concentration needed to halve the response being measured. Low readings indicate greater potency, high ones weaker potency. `CCCCc1ncc2n1[C@H](c1ccc(-c3ccccc3-c3nnn(C(c4ccccc4)(c4ccccc4)c4ccccc4)n3)cc1)CC[C@@H]2N1C(=O)CCC1=O` displayed an IC50 in experiment [1] greater than 10 µM. Take `CCCCc1ncc2n1C(c1ccc(-c3ccccc3-c3nnn[nH]3)cc1)CC=C2` (stereo not given): the results for the half-inhibitory concentration (IC50) in experiment [2] and in experiment [1] were greater than 10 µM and 0.12 µM, respectively. With `CCCCn1nc(C(CCC)CCO)n(Cc2ccc(-c3ccccc3-c3nnn(C(c4ccccc4)(c4ccccc4)c4ccccc4)n3)cc2)c1=O` (stereo not given), the 50% inhibitory concentration (IC50) in experiment [2] was greater than 10 µM. On to `CCCCn1nc2n(c1=O)C(c1ccc(-c3ccccc3-c3nnn(C(c4ccccc4)(c4ccccc4)c4ccccc4)n3)cc1)CCC2CCC` (stereo not given), for which the IC50 in experiment [2] and in experiment [1] was greater than 10 µM throughout. `CCCCn1nc2n(c1=O)C(c1ccc(-c3ccccc3-c3nn[nH]n3)cc1)CCC2` (stereo not given) displayed an IC50 in experiment [1] greater than 10 µM. In experiment [1], `CCCCc1ncc2n1[C@H](c1ccc(-c3ccccc3-c3nnn(C(c4ccccc4)(c4ccccc4)c4ccccc4)n3)cc1)C[C@@H](Br)[C@@H]2N1C(=O)CCC1=O` registered a half-inhibitory concentration (IC50) greater than 10 µM. As to `CCCCc1nc(Cl)c2n1[C@H](c1ccc(-c3ccccc3-c3nn[nH]n3)cc1)CC[C@@H]2N1C(=O)CCC1=O`, the Kb in experiment [3] (Oryctolagus cuniculus, Aorta, read-out: pA2 (converted)) was 0.00158 µM. In experiment [1], the IC50 worked out at 0.011 µM. For the molecule `CCCCn1nc(C(CCC)CC2=NC(C)(C)CO2)n(Cc2ccc(-c3ccccc3-c3nnn(C(c4ccccc4)(c4ccccc4)c4ccccc4)n3)cc2)c1=O` (stereo not given), the half-inhibitory concentration (IC50) in experiment [2] was greater than 10 µM.

As a reminder, the pA2 is the negative logarithm of the molar antagonist concentration that doubles the agonist concentration needed for the same response. A lower pA2 goes with a weaker antagonist. In the case of `CCCCc1ncc2n1[C@H](c1ccc(-c3ccccc3-c3nn[nH]n3)cc1)CC[C@@H]2N1C(=O)CCC1=O`, in experiment [3], the pA2 worked out at 8.6. In experiment [1], this molecule gave an IC50 of 0.015 µM. As for `CCCCc1cn(Cc2ccc(-c3ccccc3-c3nnn(C(c4ccccc4)(c4ccccc4)c4ccccc4)n3)cc2)c(CCCC)n1`, the half-inhibitory concentration (IC50) in experiment [1] is greater than 10 µM. Turning to `CCCCN1N=C(CCC)/C(=C/c2ccc(-c3ccccc3-c3nn[nH]n3)cc2)C1=O`, the IC50 in experiment [2] was 45 µM. `CCCCN1N=C(CCC)C(Cc2ccc(-c3ccccc3-c3nn[nH]n3)cc2)C1=O` (stereo not given) showed an IC50 in experiment [2] of 0.5 µM.

As for `CCCCc1cn(Cc2ccc(-c3ccccc3-c3nnn[nH]3)cc2)c(CCCC)n1`, the half-maximal inhibitory concentration (IC50) in experiment [1] is 0.063 µM.

`CCCCn1nc(C(Br)CCC)n(Cc2ccc(-c3ccccc3-c3nnn(C(c4ccccc4)(c4ccccc4)c4ccccc4)n3)cc2)c1=O` (stereo not given): the IC50 in experiment [2] is greater than 10 µM. Turning to `CCCC1CCC(c2ccc(-c3ccccc3-c3nnn[nH]3)cc2)n2c1n[nH]c2=O` (stereo not given), in experiment [2], the half-inhibitory concentration (IC50) is greater than 10 µM.

`CCCCc1nn(CCCC)c(=O)n1Cc1ccc(-c2ccccc2-c2nnn[nH]2)cc1` registered an IC50 in experiment [2] of 0.005 µM. The molecule `CCCCc1nc(CCCC)n2c1C=CCC2c1ccc(-c2ccccc2-c2nn[nH]n2)cc1` (stereo not given) had a 50% inhibitory concentration (IC50) in experiment [1] of 0.19 µM. In the case of `CCCCc1nn(CCCC)c(=O)n1Cc1ccc(-c2ccccc2-c2nnn(C(c3ccccc3)(c3ccccc3)c3ccccc3)n2)cc1`, in experiment [2], the 50% inhibitory concentration (IC50) was greater than 10 µM. On the same count and under the same terms, next, `CCCCn1nc(C(CCC)CCBr)n(Cc2ccc(-c3ccccc3-c3nnn(C(c4ccccc4)(c4ccccc4)c4ccccc4)n3)cc2)c1=O` (stereo not given): greater than 10 µM; `CCCCn1nc2n(c1=O)C(c1ccc(-c3ccccc3-c3nn[nH]n3)cc1)CCC2CCC` (stereo in doubt; 12): 1.8 µM; `CCCCn1nc2n(c1=O)C(c1ccc(-c3ccccc3-c3nn[nH]n3)cc1)CCC2CCC` (stereo in doubt; 13): 1.6 µM.
